Measured values: patent US20090181896A1, “Use of Natriuretic Peptide Receptor Antagonists to Treat Ocular, Otic and Nasal Edemetous Conditions” (ALCON RESEARCH, LTD., priority 2006, published 2009)

Assays:
Assay type in all cases: cell-based
[1] = biological target: T1, Type-B natriuretic peptide receptor in human corneal epithelial cells (Homo sapiens, UniProt P20594); test: Natriuretic peptide-stimulated cGMP production (guanylyl cyclase activity, EIA) in human corneal epithelial cells; conditions: cGMP production via type-B receptor
T1 construct: primary human corneal epithelial cells (P-CEPI) were isolated from human donor eyes; endogenous in cells; host or cells: primary human corneal epithelial cells (P-CEPI) and SV40-immortalized human corneal epithelial cells (CEPI-17-CL4)
T1 sequence (P20594 23-1047): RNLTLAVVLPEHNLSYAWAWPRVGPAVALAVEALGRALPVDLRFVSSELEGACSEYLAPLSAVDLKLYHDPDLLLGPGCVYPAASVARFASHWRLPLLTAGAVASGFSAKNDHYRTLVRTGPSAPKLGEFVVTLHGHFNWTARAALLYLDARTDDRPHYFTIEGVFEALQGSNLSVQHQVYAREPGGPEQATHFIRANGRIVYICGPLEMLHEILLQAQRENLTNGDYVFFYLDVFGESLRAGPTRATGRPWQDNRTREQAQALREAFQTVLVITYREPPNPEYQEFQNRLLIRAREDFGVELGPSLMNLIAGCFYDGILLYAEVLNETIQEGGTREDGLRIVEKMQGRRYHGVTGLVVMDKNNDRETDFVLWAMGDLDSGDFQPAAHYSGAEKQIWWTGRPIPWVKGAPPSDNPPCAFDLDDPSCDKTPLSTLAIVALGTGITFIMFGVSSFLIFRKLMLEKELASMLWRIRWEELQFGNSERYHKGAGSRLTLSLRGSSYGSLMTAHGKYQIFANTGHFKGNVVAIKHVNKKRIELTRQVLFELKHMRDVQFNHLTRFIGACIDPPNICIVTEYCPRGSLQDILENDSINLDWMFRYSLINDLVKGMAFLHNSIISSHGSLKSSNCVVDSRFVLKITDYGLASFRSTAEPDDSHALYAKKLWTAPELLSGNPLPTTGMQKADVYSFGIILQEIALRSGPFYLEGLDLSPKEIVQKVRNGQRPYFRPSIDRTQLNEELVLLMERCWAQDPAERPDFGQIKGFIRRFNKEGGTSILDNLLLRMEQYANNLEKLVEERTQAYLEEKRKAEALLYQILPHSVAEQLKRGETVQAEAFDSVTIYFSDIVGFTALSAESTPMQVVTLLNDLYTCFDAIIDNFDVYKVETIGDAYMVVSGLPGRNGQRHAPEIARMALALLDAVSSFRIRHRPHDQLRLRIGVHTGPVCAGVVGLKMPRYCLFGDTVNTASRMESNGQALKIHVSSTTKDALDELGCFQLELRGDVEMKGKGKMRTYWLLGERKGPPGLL
Description: Thus, primary human corneal epithelial cells (P-CEPI) were isolated from human donor eyes ≦24 hr postmortem and were cultured in EpiLife medium (Cascade Biologics, Portland, Oreg.) containing 1% human corneal growth supplement, 100 u/ml penicillin G, 100 mg/ml streptomycin sulfate. Culture plates were coated with fibronectin to help the cells adhere to the bottom of the plates. […]
In brief, compounds of interest were diluted in ethanol so that the final ethanol concentration was 1%, a concentration well tolerated by the cells. […] Finally, ice-cold 0.1 M sodium acetate (220 ml, pH 11.5-12.0) was added to neutralize the samples before analysis of cGMP by an enzyme immunoassay (EIA) kit. cGMP production in the cells was measured using the EIA kit purchased from Amersham Pharmacia Biotech (Piscataway, N.J.). […] Data were analyzed using a non-linear, iterative curve-fitting computer program (IDBS, Surrey, UK) and Origin software package (Microcal Software, Inc., Northampton, Mass.) (Sharif et al. 1996; Crider et al. 2003). […]

[2] = biological target: T2, Type-A natriuretic peptide receptor in human conjunctival epithelial cells (Chang cells) (Homo sapiens, UniProt P16066); test: Natriuretic peptide-stimulated cGMP production (guanylyl cyclase activity, EIA) in human conjunctival epithelial cells (Chang cells); conditions: for Agonist character in words: cGMP production; for Intrinsic Activity (Emax; % Max. Response): cGMP production via type-A receptor
T2 construct: the most relevant cells are Chang cells (Clone 1-5C-4 Wong-Kilbourne Derivative); These cells were obtained from ATCC; host or cells: Chang cells (Clone 1-5C-4 Wong-Kilbourne Derivative), human conjunctival epithelial cells
T2 sequence (P16066 33-1061): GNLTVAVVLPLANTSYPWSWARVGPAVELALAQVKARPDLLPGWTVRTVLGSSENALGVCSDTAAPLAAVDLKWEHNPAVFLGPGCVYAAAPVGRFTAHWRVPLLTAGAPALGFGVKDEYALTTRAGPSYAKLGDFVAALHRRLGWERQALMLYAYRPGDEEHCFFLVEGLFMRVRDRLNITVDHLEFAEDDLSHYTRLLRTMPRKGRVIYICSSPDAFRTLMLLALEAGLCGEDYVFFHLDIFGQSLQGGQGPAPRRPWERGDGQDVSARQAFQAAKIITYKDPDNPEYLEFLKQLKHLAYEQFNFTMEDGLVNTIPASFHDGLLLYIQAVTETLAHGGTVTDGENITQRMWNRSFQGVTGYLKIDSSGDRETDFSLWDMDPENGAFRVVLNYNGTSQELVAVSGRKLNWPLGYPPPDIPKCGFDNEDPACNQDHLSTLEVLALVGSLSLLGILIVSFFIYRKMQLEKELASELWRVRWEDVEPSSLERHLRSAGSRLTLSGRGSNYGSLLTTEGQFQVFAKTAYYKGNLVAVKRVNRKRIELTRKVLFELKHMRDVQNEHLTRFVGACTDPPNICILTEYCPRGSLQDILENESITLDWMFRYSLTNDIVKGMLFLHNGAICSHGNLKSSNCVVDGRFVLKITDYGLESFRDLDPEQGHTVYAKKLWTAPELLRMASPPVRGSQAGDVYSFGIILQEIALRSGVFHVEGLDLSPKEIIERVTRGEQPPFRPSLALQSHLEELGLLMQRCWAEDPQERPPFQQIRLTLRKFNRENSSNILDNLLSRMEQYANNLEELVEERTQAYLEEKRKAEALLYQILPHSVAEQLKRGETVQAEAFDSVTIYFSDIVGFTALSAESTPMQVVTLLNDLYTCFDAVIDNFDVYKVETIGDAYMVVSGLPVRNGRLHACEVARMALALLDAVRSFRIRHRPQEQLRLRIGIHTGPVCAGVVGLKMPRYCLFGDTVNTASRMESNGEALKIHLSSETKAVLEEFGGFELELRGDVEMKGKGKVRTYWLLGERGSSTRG
Description: These cells were obtained from ATCC (Manassas, Va.) and cultured in medium 199, containing 10% fetal bovine serum and […] Gentamicin. (obtained from Gibco/Invitrogen; Carlsbad, Calif.).
Cells were seeded in 48-wells culture plates. On reaching confluence, the cells were rinsed twice with 0.5 ml Dulbeco's modified Eagle's medium (DMEM)/F-12. […] Natriuretic peptides (American Peptide Co. Inc., Sunnyvale, Calif.; Peninsula Labs. San Carlos, Calif.) were then added at the end of this period and the reaction was allowed to proceed for another 15 minutes at 23° C. After aspiration of the reaction medium, ice cold 0.1 M acetic acid ([…], pH 3.5) was added for the termination of cGMP synthesis and cell lysis. Finally, ice-cold 0.1 M sodium acetate ([…], pH 11.5-12.0) was added to neutralize the samples before analysis of cGMP by an enzyme immunoassay (EIA) kit. cGMP production in the cells was measured using the EIA kit purchased from Amersham Pharmacia Biotech (Piscataway, N.J.). This assay was conducted according to the package insert in an automated manner using a robotic workstation (Biomek 2000; Beckman Instrument, Fullerton, Calif.) (Sharif et al. Characterization of the ocular anti-allergic and anti-histaminic effects of Olopatadine (AL-4943A), a novel drug for treating ocular allergic diseases. J. Pharmacology & Experimental Therapeutics 278, 1251-1260, 1996; Crider et al. Pharmacological characterization of serotonin receptor (5HT7) stimulating cAMP production in human corneal epithelial cells. Invest. Ophthalmol. Vis. Sci. 44: 4837-4844, 2003). Data were analyzed using a non-linear, iterative curve-fitting computer program (IDBS, Surrey, UK) and Origin software package (Microcal Software, Inc., Northampton, Mass.) (Sharif et al. 1996; Crider et al. 2003).

[3] = biological target: T3, type-B natriuretic peptide receptor in immortalized human corneal epithelial (CEPI-17-CL4) cells (Homo sapiens, UniProt P20594); test: Antagonism of CNP fragment-induced cGMP production in immortalized human corneal epithelial (CEPI-17-CL4) cells; conditions: mean ± SEM
T3 construct: primary human corneal epithelial cells (P-CEPI) were isolated from human donor eyes; endogenous in cells; host or cells: primary human corneal epithelial cells (P-CEPI) and SV40-immortalized human corneal epithelial cells (CEPI-17-CL4)
T3 sequence (P20594 23-1047): T1 sequence (P20594 23-1047)

| Compound | Intrinsic Activity (Emax; % Max. Response) [1] [%] | Agonist character in words [2] | Intrinsic Activity (Emax; % Max. Response) [2] [%] | Ki [3] [µM] |
| --- | --- | --- | --- | --- |
| C-type natriuretic peptide [CNP] | 100 | weak partial agonist | 26 | – |
| O=C1Nc2ccccc2C1=O [isatin] | – | – | – | 18 ± 4 |
| brain natriuretic peptide [BNP] | 50.2 | potent full agonists | 94 | – |
